Measured values: patent US20240293425A1, “BZD-1 AS A CHEMO[…] CANCER” (University of Cincinnati, priority 2021, published 2024)
Values after ≈ are worked out from the molar mass of the structure shown.

Assays:
[1] = Pharmacokinetics, brain penetration
[2] = Metabolic stability in human liver microsomes; conditions: within 1 hr
[3] = tested on: methylated and unmethylated GBM cells; assay: In vitro cytotoxicity of GBM cells, BZD-1 and TMZ single or combined; type: cell-based
[4] = Solubility in co-solvent injectable formulation; conditions: co-solvent based injectable formulation, aqueous with cosolvent or surfactant or cyclodextrin
[5] = Stability of co-solvent formulation at room temperature; type: physicochemical
[6] = tested on: rats; assay: Visible adverse effects after single dose i.p.; conditions: 12 hrs after single dose i.p., co-solvent formulation
[7] = tested on: H1792 human lung cancer cells; assay: MTS proliferation assay, DTX + 2.5 μM BZD-1; type: cell-based
Procedure: 10^3 H1792 cells/well in 100 μL of medium were plated in a 96 well plate and allowed to attach for 24 hrs. The next day, large volume of fresh medium containing 2.5 μM BZD-1 was prepared from 40 mM BZD-1 stock in DMSO. For Docetaxel (DTX) dilutions, either fresh medium was used for DTX only or 2.5 μM BZD-1 containing medium was used for DTX+2.5 μM BZD-1 treatment. Medium on cells was then aspirated and replaced by 100 μL of vehicle (DMSO)/drug containing media, with 5 replicated for each control/drug dilution. Cells were returned to the incubator for 48 hours.
For MTS Assay, medium was aspirated and replaced by 100 μL of phenol red free medium. Then 20 μL of MTS reagent (Cell Titer 96 Aqueous Non-Radioactive Cell Proliferation Assay reagent—Promega) was added to each well. The plate was returned to incubator for 1 hour, then OD acquired at 490 nm in a plate reader. OD values were then analyzed, and the graph obtained using GraphPad Prism.
10^3 H1792 cells/well in 100 μL of medium were plated in a 96 well plate and allowed to attach for 24 hrs. […]
For MTS Assay, medium was aspirated and replaced with 100 μL of phenol red free medium. […] The plate was returned to the incubator for 1 hour, then OD acquired at 490 nm in a plate reader. OD values were then analyzed, and the graph obtained using GraphPad Prism.

[8] = tested on: H1792 xenograft tumor; assay: H1792 flank xenograft dose response; type: in vivo, NOD-SCID mice
Procedure: NOD-SCID mice (3 mice/group) were implanted with 10^6 H1792 cells s.c. in both flanks. When the tumors were palpable (day 11 post implantation), treatment was started and consisted of daily i.p. injections of vehicle (DMSO) or BZD-1 drug dissolved in DMSO for 7 days. Tumor size was measured every other day using a caliper. Tumor volume was calculated as follows: […]
At day 46 post tumor implantation, mice were euthanized following institutional IACUC procedures. Tumors from both flanks were resected, weighed, and average tumor mass for each group was calculated, plotted, and photographed.

[9] = tested on: H1792 human lung cancer cells; assay: MTS proliferation assay, BZD-1 alone; type: cell-based
Procedure: 10^3 H1792 cells/well in 100 uL of medium were plated in a 96 well plate and allowed to attach for 24 hrs. The next day, BZD-1 (stock, 40 mM in DMSO) was first diluted to 40 μM in fresh cell culture medium, then serially 2-fold diluted. Medium on cells was then carefully aspirated and replaced with 100 μL of vehicle (DMSO)/drug containing medium, with 5 replicated for each control/drug dilution. Cells were returned to the incubator for 48 hours.
For MTS Assay, medium was carefully aspirated and replaced with 100 μL of phenol red free medium. Then 20 μL of MTS reagent (Cell Titer 96 Aqueous Non-Radioactive Cell Proliferation Assay reagent—Promega) was added to each well. The plate was returned to incubator for 1 hour, then OD acquired at 490 nm in a plate reader. OD values were then analyzed, and the graph obtained using GraphPad Prism.

[10] = tested on: H1792 cells; assay: Clonogenic assay, BZD-1 with or without 0.5 nM DTX; type: cell-based, human; conditions: BZD-1 + 0.5 nM DTX, 12 days
Procedure: 300 H1792 cells/well in 3 mL of medium were plated in a 6 well plate and allowed to attach for 36 hrs. A large volume of fresh medium containing 0.5 nM Docetaxel (DTX) was prepared from 1 mM stock in DMSO. For BZD-1 dilution, either fresh medium or +0.5 nM DTX containing medium was used. Medium on cells was then aspirated and replaced by 3 mL of vehicle (DMSO)/Drug containing media in triplicate for each control/drug dilution. Cells were returned to the incubator for 12 days. For staining, medium was aspirated, cells were washed 1× with PBS and fixed 15 minutes with methanol at room temperature. Methanol was then removed, and crystal violet staining solution added to cells and incubated 30 minutes at room temperature. Plates were then washed extensively with tap water, dried and pictured.

[11] = tested on: unmethylated GBM lines BT142-GFP and G43; assay: Spheroid assay; type: cell-based; conditions: BZD-1 + TMZ; BT142-GFP and G43 spheroids; qualitative
Procedure: Spheroid assays were carried out using two unmethylated GBM lines: BT142-GFP (FIG. 3A) and G43 (FIG. 3B) to qualitatively assess the effect of BZD-1+TMZ.

[12] = daily i.p. for 7 days, NOD-SCID mice

## C#Cc1ccc2c(c1)C(c1ccccc1F)=NCC(=O)N2C [BZD-1, 7-ethynyl-5-(2-fluorophenyl)-1-methyl-1,3-dihydro-2H-benzo[e][1,4]diazepin-2-one]
[1]; brain
  Time of penetration into the brain: ≤ 5 min
[1]; brain extracellular fluid
  Accumulation in brain extracellular fluid: 161.3 ng/mL
[2]
  Breakdown products in human liver microsomes: no breakdown products were found
[3]; BZD-1 + TMZ, unmethylated GBM cell lines
  Effect of combined therapy on TMZ resistance: overcomes TMZ resistance
[3]; BZD-1 in combination with TMZ, GBM cells
  Synergy of BZD-1 and TMZ (Chou-Talay Combination Index Equation): act synergistically
[4]
  solubility: 10000 µg/mL (≈ 34.2 mM)
[5]
  Stable at room temperature: up to 6 months
[6]
  Visible adverse effects: no visible adverse effects
[7]; 2.5 μM BZD-1 + DTX, 48 hours, MTS
  Effect on docetaxel cytotoxicity: potentiates the cytotoxic effect of docetaxel
[7]; BZD-1 combined with DTX, H1792 cell growth in vitro
  Combination Index (CI): 0.6
[8]; [12]
  Most effective dose: 2.5 mg/kg
  Tumor volume compared to vehicle: reduced tumor volume
[8]; doses higher than 2.5 mg/kg
  Sedation in the animal model: sedating
[9]; 48 hours, in vitro
  Proliferation of H1792 cells: inhibits proliferation
[9]; Homo sapiens, NCI-H1792, 48 hours
  IC50: 4.5 to 6 µM
[10]
  Clonogenic growth, combination with docetaxel: work synergistically
[11]
  Spheroid response to combination therapy: significant disaggregation
